Usually pIC50 stands for −log10 of the IC50, conventionally taken in molar units. A lower pIC50 goes with a high IC50.

pIC50: −log10 of the molar value.

The test deals with KYSE-150 esophageal carcinoma cell line. Description: In vitro cell-based assay: cellular proliferation via BrdU incorporation. The conditions noted are these: Homo sapiens; KYSE-150 cells, BrdU incorporation after 168 hr compound incubation. The protocol:
Cell lines tested include the JMJD2C gene amplified cell line KYSE-150. This is a quantitative ELISA assay measuring DNA incorporation of BrdU during S-phase as a direct readout of cellular proliferation.
Assay Principle: This is a colorimetric immunoassay for the quantification of cell proliferation. Cells treated for 168 hours with test compounds are assayed for their ability to go through S-phase as a measure of their proliferative potential.
Assay Method: The human KYSE-150 (SMAD4 mut, TP53 mut) esophageal carcinoma cell line was seeded at 2,000 cells/well on a 96-well tissue culture treated plate. After an overnight incubation, cells were treated with compound in an […] dilution series with final concentrations ranging from 100 μM to 2 nM. Cells were then incubated in the presence of compound for 168 hr. After compound incubation the cells were assayed using a BrdU Cell Proliferation ELISA (Roche). The cells were first incubated with BrdU labeling reagent for 2 hr. After 2 hr, the BrdU incorporated cells were fixed and denatured, probed with an anti-BrdU-Peroxidase antibody for 1.5 hr and washed. Finally, a tetramethylbenzidine peroxidase substrate was added to each well for 15 min followed by a H2SO4 stop solution. The plate was read at 450 nm, and the raw optical density data was transferred into XLFit (IDBS) for IC50 calculation using the formula: fit=(D+((Vmax*(x^n))/((x^n)+(Km^n))))
For orientation: Uptake of a labelled nucleoside into DNA is a usual measure of proliferation.
The compound `COC(=O)c1ccnc2cc(-c3c4cc(Cl)ccc4nn3CCN3CCCC3)[nH]c12` [Example 10d, Methyl 2-{5-chloro-2-[2-(pyrrolidin-1-yl)ethyl]-2H-indazol-3-yl}-1H-pyrrolo[3,2-b]pyridine-7-carboxylate] had a negative-log IC50 (pIC50) of less than 5.00.

In turn, `Cn1nc(-c2cc3nccc(C(=O)O)c3[nH]2)c2ccc(F)cc21` [Example 16, 2-(6-Fluoro-1-methyl-1H-indazol-3-yl)-1H-pyrrolo[3,2-b]pyridine-7-carboxylic Acid] showed a pIC50 of less than 5.00. In the case of `CN(c1ccccc1)c1ccc2c(-c3cc4nccc(C(=O)O)c4[nH]3)n(C)nc2c1` [Example 11, 2-{2-Methyl-6-[methyl(phenyl)amino]-2H-indazol-3-yl}-1-H-pyrrolo[3,2-b]pyridine-7-carboxylic Acid] it was no less than 7.00.

Source of the values: patent US10231957B2, “Histone demethylase inhibitors” (CELGENE QUANTICEL RESEARCH, INC., priority 2014, dated 2019).
